Results taken from patent publication US20220017623A1, “TREATMENT OF CANCER USING A CEA CD3 BISPECIFIC ANTIBODY AND A WNT SIGNALING INHIBITOR” (Hoffmann-La Roche Inc., priority 2019, published 2022).

Columns and labels:
[1] = test system: cell surface CEA expression of colorectal cancer organoid lines; assay: Wnt/β-catenin pathway inhibition assay: cell surface CEA expression of PDOs by flow cytometry; type: cell-based, human; settings: PDOs with mixed CEA expression; 10 μM for 3 days; FACS
Experimental: Two PDO lines with mixed CEA expression were treated with an inhibitor of WNT signalling: the tankyrase inhibitor compound 21 which inhibits the downstream WNT/β-catenin pathway by stabilizing the β-catenin destruction complex (Elliott et al., Med Chem Comm. 2015; 6(9):1687-92; Mariotti et al., Br J Pharmacol. 2017; 174(24):4611-36).
Cell lines were harvested using enzyme-free Cell Dissociation Buffer (Thermo Fisher) and PDOs with TrypLE Express (Gibco). 2×10^5 cells were stained with 20 nM of the human anti-human CEA antibody CH1A1A (Roche) and 25 ug/ml of the R-Phycoerythrin conjugated secondary antibody AffiniPure F(ab′)2 Fragment Goat Anti-Human IgG, Fcγ Fragment Specific (Stratech). DRAQ7 (Biostatus) staining was included for dead cell exclusion. CEA expression was analysed on a Sony SH800 flow cytometer. Gate boundaries were set at the trough between high and low CEA populations in PDOs with mixed CEA expression and identical gates were used across all samples. The percentage of CEAhi and CEAlo populations and mean fluorescence intensities (MFI) were calculated for each PDO.
10^5 PDO cells/well were seeded in 12 well plates and allowed to attach overnight. […] Cells were harvested using TrypLE Express, stained for CEA with the CH1A1A primary antibody and the R-Phycoerythrin conjugated secondary antibody and analyzed by FACS as described above.

[2] = test system: patient derived colorectal cancer organoids (PDOs); assay: allogeneic CD8 T cell co-culture assay with patient derived colorectal cancer organoids, GFP confluence growth assessment; type: cell-based, human; settings: CEAhi PDO CRC-01; E:T 2:1; 20 nM
Experimental: In order to assess the sensitivity of patient-derived colorectal cancer organoids (PDOs) to cibisatamab immunotherapy, eight patient derived colorectal cancer organoid lines with various cell surface CEA expression levels were generated and treated with cibisatamab (20 nM) or an untargeted control antibody (20 nM) during 10 days of co-culture with allogeneic CD8 T cells. CD8 T cells were isolated from allogeneic healthy donor peripheral blood mononuclear cells (PBMCs) by magnetic bead sorting and expanded in vitro with IL2 and CD3/CD28 beads for 7-14 days. GFP-tagged CRC PDO cells were then seeded in 96 well plates, T cells were added the following day and the co-cultures were imaged every 2-3 days on an automated 96 well plate fluorescence microscope. […] Co-culture with CD8 T cells without any antibody was included as a further control to enable the identification of alloreactive donor T cells. […]
PDOs were harvested with TrypLE Express and neutralised with DMEM/F12 Ham medium (Sigma Aldrich) with 10% FBS. Cells were filtered through a 70 μm filter, counted and resuspended in phenol-red free RPMI medium (Thermo Fisher) supplemented with 10% FBS (Biosera), 1× Glutamax and 100 units penicillin-streptomycin. […]
The GFP confluence was quantified every 48h-72h over a 10-day period using the GFP confluence application on the Celigo Imaging Cytometer (Nexcelom Bioscience). […]

| Compound | effect on CEA expression and CEAhi subpopulation [1] | growth suppression activity of T cells in the presence of antibody [2] |
| --- | --- | --- |
| Cc1cc(-c2ncc(CC(=O)Nc3ccc(-c4cnccn4)cn3)cc2C)ccn1 [LGK-974] | increase in CEA expression and the CEAhi subpopulation |  |
| DP47-TCB: untargeted antibody used as a negative control [reference compound] |  | no activity |
